Assays:
Assay type in all cases: in vivo, human
[1] = system: osteoarthritis of the knee; test: Second Phase 2 study: WOMAC stiffness subscale score
Description: For subjects with bilateral knee pain, both knees will be treated, but the most symptomatic knee (ie, the most painful knee as measured by the Western Ontario and McMaster University Osteoarthritis Index [WOMAC® 3.1] pain subscale score at Screening) will be designated as the target knee for efficacy analyses. For subjects with unilateral knee pain, only the symptomatic (target) knee will be treated.
(§1) The VAS version of the WOMAC will be used for the Primary and Secondary Efficacy Endpoints. Efficacy endpoints will be assessed at Screening and Baseline (Day 1) and at the Week 2, Week 4, Week 8, and Week 12/EOS visits.
(§2) 4.9.2. Secondary Efficacy Endpoints: • 1. Change from Baseline in the WOMAC (VAS) pain subscale score for the target knee at 2, 8, and 12 weeks of treatment; • 2. Change from Baseline in the WOMAC (VAS) stiffness subscale scores for the target knee and WOMAC (VAS) functional ability subscale scores at 2, 4, 8, and 12 weeks of treatment; • 3. Change from Baseline in the overall WOMAC (VAS) score at 2, 4, 8, and 12 weeks of treatment; • 4. Subject's global assessment of disease status of the target knee at 2, 4, 8, and 12 weeks of treatment; • 5. Subject's global assessment of response to therapy of the target knee at 2, 4, 8, and 12 weeks of treatment; • 6. Amount of rescue medication (acetaminophen) consumed per day for target knee pain.
(§3) The Secondary Efficacy Endpoints, change from Baseline in the WOMAC subscale scores for pain, stiffness, and functional ability, and overall WOMAC score at 2, 4, 8, and 12 weeks of treatment, will be analyzed using the same methods as for the Primary Efficacy Endpoint.

[2] = system: osteoarthritis of the knee; test: Second Phase 2 study: WOMAC overall score
Description: This is a Phase 2, multicenter, randomized, double blind (within dose), Ibuprofen-placebo controlled, parallel group, dose range finding study to evaluate the efficacy, safety, and PK of 2-(diethylamino)ethyl 2-(4-isobutylphenyl)propionate spray in adult subjects with clinically symptomatic OA of the knee. For subjects with bilateral knee pain, both knees will be treated, but the most symptomatic knee (ie, the most painful knee as measured by the Western Ontario and McMaster University Osteoarthritis Index [WOMAC® 3.1] pain subscale score at Screening) will be designated as the target knee for efficacy analyses. For subjects with unilateral knee pain, only the symptomatic (target) knee will be treated.
as §1, §2, §3

[3] = system: osteoarthritis of the knee; test: Second Phase 2 study: Investigator's global assessment of disease status (IGADS); settings: Week 12
[4] = Baseline, oral, 3 × 400 mg (n = 20), first 130 subjects
[5] = Week 12, oral, 3 × 400 mg (n = 20), first 130 subjects
[6] = all subjects, Oral Ibuprofen 3 × 400 mg, n = 48, Week 12
[7] = all subjects, Oral Ibuprofen 3 × 400 mg, n = 48 vs. Placebo n = 48
[8] = oral 3×400 mg, first 130 subjects
[9] = oral, 3 x 400 mg (n = 20), first 130 subjects
[10] = all subjects, Oral Ibuprofen 3 × 400 mg, n = 48

For `CC(C)Cc1ccc(C(C)C(=O)O)cc1` (stereo not shown) [Ibuprofen, 2-(4-isobutylphenyl)propionic acid, reference compound], the “WOMAC Stiffness Subscale Scores, Baseline (LS Mean)” value [1, 4] was 56.4 mm, the “WOMAC Stiffness Subscale Scores, % of improvement from Placebo” value [1, 5] was −10.3% and the “WOMAC Stiffness Subscale Scores, Changes from Baseline (LS Mean)” value [1, 5] was −20.6 mm. The “WOMAC Stiffness Subscale Scores, Different from placebo (LS Mean)” value [1, 5] was −6.6 mm, the “WOMAC Stiffness Subscale Scores, Week 12 (LS Mean)” value [1, 5] was 35.8 mm and the “WOMAC Stiffness Subscale Scores, % of improvement from Placebo” value [1, 6] was −6.9%. The “WOMAC Stiffness Subscale Scores, % of improvement from baseline” value [1, 6] was −39.3%, the “WOMAC Stiffness Subscale Scores, Changes from Baseline (LS Mean)” value [1, 6] was −20.3 mm and the “WOMAC Stiffness Subscale Scores, Week 12 (LS Mean)” value [1, 6] was 31.3 mm. For the same compound, the “WOMAC Stiffness, difference vs. Placebo” value [1, 7] was −3.8 mm, the “WOMAC stiffness, difference from placebo” value [1, 8] was −6.7 mm and the “WOMAC Overall Scores, Baseline (LS Mean)” value [2, 4] was 65.0 mm. For the same compound, the “WOMAC Overall Scores, % of improvement from baseline” value [2, 5] was −33.1%, the “WOMAC Overall Scores, % of improvement from placebo” value [2, 5] was −2.9% and the “WOMAC Overall Scores, Changes from Baseline (LS Mean)” value [2, 5] was −21.5 mm. The “WOMAC Overall Scores, Different from placebo (LS Mean)” value [2, 5] was −3.1 mm, the “WOMAC Overall Scores, Week 12 (LS Mean)” value [2, 5] was 43.5 mm and the “WOMAC Overall Scores, % of improvement from baseline” value [2, 6] was −41.3%. The “WOMAC Overall Scores, % of improvement from placebo” value [2, 6] was −5.1%, the “WOMAC Overall Scores, Changes from Baseline (LS Mean)” value [2, 6] was −24.9 mm and the “WOMAC Overall Scores, Week 12 (LS Mean)” value [2, 6] was 35.4 mm. The “WOMAC Total, difference vs. Placebo” value [2, 7] was −3.6 mm, the “WOMAC overall, difference from placebo” value [2, 8] was −3.0 mm and the “IGADS: Good and Very good” value [3, 9] was 40.0%. For the same compound, the “IGADS: Poor and Very Poor” value [3, 9] was 15.0%, the “IGADS: fair” value [3, 9] was 45.0% and the “IGADS, Good and Very good” value [3, 10] was 39.6%. The “IGADS, Poor and Very Poor” value [3, 10] was 4.1%.
